Patent publication US20250163104A1, “MACROCYCLIC IMMUNOMODULATORS” (priority 2021, published 2025)
Where a SMILES comes first, the peptide text is derived from it. Bridges are numbered along the chain shown (N, C = ends). [ ]: non-standard residue; d: D form. The star is where a group is joined. ξ: configuration not given here. Bip(3'-COOH) = N[C@@H](Cc1ccc(-c2cccc(C(=O)O)c2)cc1)C(=O)O; Bip(4'-COOH) = N[C@@H](Cc1ccc(-c2ccc(C(=O)O)cc2)cc1)C(=O)O; Phe(4-COOH) = N[C@@H](Cc1ccc(C(=O)O)cc1)C(=O)O; Bip = N[C@@H](Cc1ccc(-c2ccccc2)cc1)C(=O)O; Phe(3-Me) = Cc1cccc(C[C@H](N)C(=O)O)c1; αMeF = C[C@](N)(Cc1ccccc1)C(=O)O; 3Pal = N[C@@H](Cc1cccnc1)C(=O)O; Cha = N[C@@H](CC1CCCCC1)C(=O)O; Cit = NC(=O)NCCC[C@H](N)C(=O)O; Thr(3ξ) = CC(O)[C@H](N)C(=O)O; Carboxymethyl = O=C(O)C*; Nle = CCCC[C@H](N)C(=O)O; Orn = NCCC[C@H](N)C(=O)O; Dab = NCC[C@H](N)C(=O)O; Dap = NC[C@H](N)C(=O)O; Propargyl = C#CC*

target: T1, human PD-1 / PD-L1-Ig binding on Jurkat cell line over-expressing human PD-1 (Jurkat-PD-1) (Homo sapiens, UniProt Q15116); test: Jurkat-PD-1 Cell Binding High-Content Screening Assay (CBA); assay type: cell-based; conditions: Jurkat-PD-1 cells, PE-labeled PD-L1-Ig 20 nM final; read-out: Jurkat HPD1_PDL1 IC50
T1 construct: expressed in transfected cells; host or cells: Jurkat
Procedure, shortened: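 Cell-bound PE-labeled PD-L1-Ig (20 nM final, 1 h) measured by high-content imaging after fixation and Hoechst 33342 counterstain. Compound was applied first for 2 h at 37° C. to Jurkat cells over-expressing human PD-1 in DMEM with 10% FCS.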

T1 sequence (Q15116 25-288): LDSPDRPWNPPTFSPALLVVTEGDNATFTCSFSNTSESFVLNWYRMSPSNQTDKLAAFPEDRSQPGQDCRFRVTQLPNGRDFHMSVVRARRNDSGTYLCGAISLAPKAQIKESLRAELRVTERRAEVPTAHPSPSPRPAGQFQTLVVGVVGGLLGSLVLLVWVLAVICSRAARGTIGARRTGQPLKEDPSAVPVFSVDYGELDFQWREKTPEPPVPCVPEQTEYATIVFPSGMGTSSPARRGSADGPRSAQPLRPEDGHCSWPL

IC50 [nM] | SMILES
8.5 | Cc1cccc(C[C@@H]2NC(=O)[C@H](CC(=O)O)NC(=O)[C@H](Cc3ccc(C(=O)O)cc3)NC(=O)[C@H](Cc3ccc(OCC(=O)O)cc3)NC(=O)CSC[C@@H](C(=O)N[C@@H](C)C(N)=O)NC(=O)[C@H]([C@@H](C)O)NC(=O)[C@H](C(C)C)NC(=O)[C@H](CC3CCCCC3)NC(=O)[C@H](CCN)NC(=O)[C@@H](CC(C)C)NC(=O)[C@H](CCCN)NC(=O)[C@H](CN)NC(=O)[C@H](Cc3ccc(-c4ccccc4)cc3)NC(=O)[C@H](C(C)C)NC2=O)c1 [Compound 1416]
17.2 | CC(C)C[C@H]1NC(=O)[C@H](CCCN)NC(=O)[C@H](CCC(=O)O)NC(=O)[C@H](Cc2ccc(-c3ccccc3)cc2)NC(=O)[C@H](C(C)C)NC(=O)[C@H](Cc2c[nH]c3ccccc23)NC(=O)[C@H](CC(=O)O)NC(=O)[C@H](Cc2ccc(-c3ccc(C(=O)O)cc3)cc2)NC(=O)[C@H](Cc2ccccc2)NC(=O)CSC[C@@H](C(=O)N[C@@H](C)C(N)=O)NC(=O)[C@H]([C@@H](C)O)NC(=O)[C@H](C(C)C)NC(=O)[C@H](CC2CCCCC2)NC(=O)[C@H](CCN)NC1=O [Compound 2167] ({CH2CO}-F[Bip(4'-COOH)]DWV[Bip]E[Orn][dL][Dab][Cha]VTCA-NH2; thioether N-14)
34.5 | CC(C)C[C@H]1NC(=O)[C@H](CCCN)NC(=O)[C@H](CCCNC(N)=O)NC(=O)[C@H](Cc2ccc(-c3ccccc3)cc2)NC(=O)[C@H](C(C)C)NC(=O)[C@H](Cc2c[nH]c3ccccc23)NC(=O)[C@H](CC(=O)O)NC(=O)[C@H](Cc2ccc(OCC(=O)O)cc2)NC(=O)[C@H](CN)NC(=O)CSC[C@@H](C(=O)N[C@@H](C)C(N)=O)NC(=O)[C@H]([C@@H](C)O)NC(=O)[C@H](C(C)C)NC(=O)[C@H](CC2CC2)NC(=O)[C@H](CCN)NC1=O [Compound 1363]
27.4 | CC(C)C[C@H]1NC(=O)[C@H](CCCN)NC(=O)[C@H](CCC(=O)O)NC(=O)[C@H](Cc2ccc(-c3ccccc3)cc2)NC(=O)[C@H](C(C)C)NC(=O)[C@H](Cc2cccc(Cl)c2)NC(=O)[C@H](CC(=O)O)NC(=O)[C@H](Cc2ccc(C(=O)O)cc2)NC(=O)[C@H](Cc2ccc(OCC(=O)O)cc2)NC(=O)CSC[C@@H](C(=O)N[C@@H](C)C(N)=O)NC(=O)[C@H]([C@@H](C)O)NC(=O)[C@H](C(C)C)NC(=O)[C@H](CC2CCCCC2)NC(=O)[C@H](CCN)NC1=O [Compound 1492]
6.2 | Cc1cccc(C[C@@H]2NC(=O)[C@H](CC(=O)O)NC(=O)[C@H](Cc3ccc(OCC(=O)O)cc3)NC(=O)[C@H](Cc3cccnc3)NC(=O)CSC[C@@H](C(=O)N[C@@H](C)C(N)=O)NC(=O)[C@H]([C@@H](C)O)NC(=O)[C@H](C(C)C)NC(=O)[C@H](CC(C)C)NC(=O)[C@H](CCN)NC(=O)[C@@H](CC(C)C)NC(=O)[C@H](CCCN)NC(=O)[C@H](CCCNC(N)=O)NC(=O)[C@H](Cc3ccc(-c4ccccc4)cc3)NC(=O)[C@H](C(C)C)NC2=O)c1 [Compound 1225] ({CH2CO}-[3Pal]Y(Carboxymethyl)D[Phe(3-Me)]V[Bip][Cit][Orn][dL][Dab]LVTCA-NH2; thioether N-14)
11.4 | CC(C)C[C@H]1NC(=O)[C@H](CCCN)NC(=O)[C@H](CCCNC(N)=O)NC(=O)[C@H](Cc2ccc(-c3ccccc3)cc2)NC(=O)[C@H](C(C)C)NC(=O)[C@H](Cc2c[nH]c3ccccc23)NC(=O)[C@H](CC(=O)O)NC(=O)[C@](C)(Cc2ccccc2)NC(=O)[C@H](CN)NC(=O)CSC[C@@H](C(=O)N[C@@H](C)C(N)=O)NC(=O)[C@H]([C@@H](C)O)NC(=O)[C@H](C(C)C)NC(=O)[C@H](CC2CCCCC2)NC(=O)[C@H](CCN)NC1=O [Compound 2137] ({CH2CO}-[Dap][αMeF]DWV[Bip][Cit][Orn][dL][Dab][Cha]VTCA-NH2; thioether N-14)
9.1 | CCC[C@@H]1NC(=O)[C@H](Cc2c[nH]c3ccccc23)NC(=O)[C@H](CC(=O)O)NC(=O)[C@H](Cc2ccc(OCC(=O)O)cc2)NC(=O)[C@H](CN)NC(=O)CSC[C@@H](C(=O)N[C@@H](C)C(N)=O)NC(=O)[C@H]([C@@H](C)O)NC(=O)[C@H](C(C)C)NC(=O)[C@H](CC2CCCCC2)NC(=O)[C@H](CCN)NC(=O)[C@@H](CC(C)C)NC(=O)[C@H](CCCN)NC(=O)[C@H]([C@@H](C)CC)NC(=O)[C@H](Cc2ccc(-c3ccccc3)cc2)NC1=O [Compound 1727]
24.3 | CC[C@H](C)[C@@H]1NC(=O)[C@H](Cc2ccc(-c3ccccc3)cc2)NC(=O)[C@H](C(C)C)NC(=O)[C@H](Cc2c[nH]c3ccccc23)NC(=O)[C@H](CC(=O)O)NC(=O)[C@H](Cc2ccc(O)cc2)NC(=O)[C@H](CC(N)=O)NC(=O)CSC[C@@H](C(=O)NCC(N)=O)NC(=O)[C@H]([C@@H](C)O)NC(=O)[C@H](C(C)C)NC(=O)[C@H](CC(C)C)NC(=O)[C@H](CCN)NC(=O)[C@@H](CC(C)C)NC(=O)[C@H](CCCN)NC1=O [Compound 1124] ({CH2CO}-NYDWV[Bip]I[Orn][dL][Dab]LVTCG-NH2; thioether N-14)
133 | C#CCOc1ccc(C[C@@H]2NC(=O)[C@@H](CC(C)C)NC(=O)[C@H](CCCN)NC(=O)[C@H](C(C)C)NC(=O)[C@H](Cc3ccc(-c4ccccc4)cc3)NC(=O)[C@H](C(C)C)NC(=O)[C@H](Cc3cccc(C)c3)NC(=O)[C@H](CC(=O)O)NC(=O)[C@H](Cc3ccc(C(=O)O)cc3)NC(=O)[C@H](CN)NC(=O)CSC[C@@H](C(=O)N[C@@H](CCN)C(N)=O)NC(=O)[C@H]([C@@H](C)O)NC(=O)[C@H](C(C)C)NC(=O)[C@H](CC3CCCCC3)NC2=O)cc1 [Compound 2026] ({CH2CO}-[Dap][Phe(4-COOH)]D[Phe(3-Me)]V[Bip]V[Orn][dL]Y(Propargyl)[Cha]VTC[Dab]-NH2; thioether N-14)
68.6 | CC(C)C[C@@H]1NC(=O)[C@H](Cc2c[nH]c3ccccc23)NC(=O)[C@H](CC(=O)O)NC(=O)[C@H](Cc2ccc(OCC(=O)O)cc2)NC(=O)[C@H](C(C)O)NC(=O)CSC[C@@H](C(=O)N[C@@H](CC(N)=O)C(N)=O)NC(=O)[C@H](CO)NC(=O)[C@H](C(C)C)NC(=O)[C@H](CC2CCCCC2)NC(=O)[C@H](CCN)NC(=O)[C@@H](CC(C)C)NC(=O)[C@H](CCCN)NC(=O)[C@H](CC(N)=O)NC(=O)[C@H](Cc2ccc(-c3ccccc3)cc2)NC1=O (stereo partly drawn) [Compound 2557] ({CH2CO}-[Thr(3ξ)]Y(Carboxymethyl)DWL[Bip]N[Orn][dL][Dab][Cha]VSCN-NH2; thioether N-14)
6.1 | Cc1cccc(C[C@@H]2NC(=O)[C@H](CC(=O)O)NC(=O)[C@H](Cc3ccc(OCC(=O)O)cc3)NC(=O)[C@H](CN)NC(=O)CSC[C@@H](C(=O)N[C@@H](C)C(N)=O)NC(=O)[C@H]([C@@H](C)O)NC(=O)[C@H](C(C)C)NC(=O)[C@H](CC3CCCCC3)NC(=O)[C@H](CCN)NC(=O)[C@@H](CC(C)C)NC(=O)[C@H](CCCN)NC(=O)[C@H](CCC(=O)O)NC(=O)[C@H](Cc3ccc(-c4ccccc4)cc3)NC(=O)[C@H](C(C)C)NC2=O)c1 [Compound 1302]
17.3 | CC(=O)NCCCC[C@@H]1NC(=O)[C@H](CCCNC(N)=O)NC(=O)[C@H](Cc2ccc(-c3ccccc3)cc2)NC(=O)[C@H](C(C)C)NC(=O)[C@H](Cc2cccc(C)c2)NC(=O)[C@H](CC(N)=O)NC(=O)[C@H](Cc2ccc(OCC(=O)O)cc2)NC(=O)[C@H](Cc2ccccc2)NC(=O)CSC[C@@H](C(=O)N[C@@H](C)C(N)=O)NC(=O)[C@H](CO)NC(=O)[C@H](C(C)C)NC(=O)[C@H](CC2CCCCC2)NC(=O)[C@H](CC(N)=O)NC(=O)[C@@H](CC(C)C)NC1=O [Compound 2501] ({CH2CO}-FY(Carboxymethyl)N[Phe(3-Me)]V[Bip][Cit]K(Ac)[dL]N[Cha]VSCA-NH2; thioether N-14)
14.3 | CC(C)C[C@H]1NC(=O)[C@H](CCCN)NC(=O)[C@H](CCC(=O)O)NC(=O)[C@H](Cc2ccc(-c3ccccc3)cc2)NC(=O)[C@H](C(C)C)NC(=O)[C@H](Cc2c[nH]c3ccccc23)NC(=O)[C@H](CC(=O)O)NC(=O)[C@H](Cc2ccc(-c3cccc(C(=O)O)c3)cc2)NC(=O)[C@H](CC(N)=O)NC(=O)CSC[C@@H](C(=O)N[C@@H](C)C(N)=O)NC(=O)[C@H]([C@@H](C)O)NC(=O)[C@H](C(C)C)NC(=O)[C@H](CC2CCCCC2)NC(=O)[C@H](CCN)NC1=O [Compound 2160] ({CH2CO}-N[Bip(3'-COOH)]DWV[Bip]E[Orn][dL][Dab][Cha]VTCA-NH2; thioether N-14)
200 | CCCC[C@@H]1NC(=O)CSC[C@@H](C(=O)N[C@@H](CCN)C(N)=O)NC(=O)[C@H](CCC(=O)O)NC(=O)[C@H](C(C)C)NC(=O)[C@H](CC2CCCCC2)NC(=O)[C@H](CCN)NC(=O)[C@@H](CC(C)C)NC(=O)[C@H](CCCN)NC(=O)[C@H](Cc2ccc(C(=O)O)cc2)NC(=O)[C@H](Cc2ccc(-c3ccccc3)cc2)NC(=O)[C@H](Cc2ccc(C(=O)O)cc2)NC(=O)[C@H](Cc2cccc(C)c2)NC(=O)[C@H](CC(N)=O)NC(=O)[C@H](Cc2ccc(OCC(=O)O)cc2)NC1=O [Example 2723] ({CH2CO}-[Nle]Y(Carboxymethyl)N[Phe(3-Me)][Phe(4-COOH)][Bip][Phe(4-COOH)][Orn][dL][Dab][Cha]VEC[Dab]-NH2; thioether N-14)
21.3 | CC(C)C[C@@H]1NC(=O)[C@H](CC2CCCCC2)NC(=O)[C@H](CCN)NC(=O)[C@@H](CC(C)C)NC(=O)[C@H](CCCN)NC(=O)[C@H](CCCNC(N)=O)NC(=O)[C@H](Cc2ccc(-c3ccccc3)cc2)NC(=O)[C@H](C(C)C)NC(=O)[C@H](Cc2c[nH]c3ccccc23)NC(=O)[C@H](CC(=O)O)NC(=O)[C@H](Cc2ccc(OCC(=O)O)cc2)NC(=O)[C@H](CN)NC(=O)CSC[C@@H](C(=O)N[C@@H](C)C(N)=O)NC(=O)[C@H]([C@@H](C)O)NC1=O [Compound 1322] ({CH2CO}-[Dap]Y(Carboxymethyl)DWV[Bip][Cit][Orn][dL][Dab][Cha]LTCA-NH2; thioether N-14)
